# Experiments:
# factor Xa = target: T1, factor Xa (Homo sapiens, UniProt P00742); experiment: chromogenic substrate hydrolysis assay, factor Xa; assay type: biochemical; conditions: for IC50: Tris-HCl pH 7.4, 37 °C, > values from highest concentration used, read-out: FXa IC50; for FXa HS (Hill slope) / FXa ΔY (efficacy): pH 7.4, 37 °C
# T1 construct: Human plasma proteins such as FXIIIa, thrombin, factor Xa, and factor XIa; purchased Haematologic Technologies; host or cells: human plasma
# From the text: (§1) One of the motivations for targeting anion-binding sites on human FXIIIa was to achieve selectivity in inhibition over closely related enzymes such as other clotting serine proteases or other transglutaminases and cysteine proteases.
# (§2) Human plasma proteins such as FXIIIa, thrombin, factor Xa, and factor XIa were procured from Haematologic Technologies. Recombinant human TG-2 was sourced from Tocris Bioscience. Their activities were validated according to the supplier’s instructions. Chromogenic substrates for thrombin and factor Xa were acquired from Biomedica Diagnostics, while the factor XIa chromogenic substrate (S-2366) was obtained from Diapharma. Dithiothreitol, N,N-dimethylcasein, and dansylcadaverine were purchased from Sigma Aldrich. Stock solutions of thrombin and factor XIa were prepared in 50 mM Tris-HCl buffer, pH 7.4, containing 150 mM sodium chloride, 0.1% PEG8000, and 0.02% Tween80. The stock solution of factor Xa was prepared in 20 mM Tris-HCl buffer, pH 7.4, containing 100 mM sodium chloride, 0.1% PEG8000, 2.5 mM CaCl2, and 0.02% Tween80. The stock solutions of FXIIIa and rTG-2 were prepared in 50 mM Tris-HCl, 1 mM CaCl2, 100 mM sodium chloride, 0.02% Tween80, 0.1% PEG8000, and 2 mg/mL dimethylcasein. Papain and its chromogenic substrate (N-α-benzoyl-L-arginyl-4-nitroanilide) were obtained from Sigma Aldrich. Papain was prepared in 50 mM Tris-HCl buffer, pH 7.4, containing 100 mM NaCl, 100 mM DTT, 2.5 mM CaCl2, 0.1% PEG8000, and 0.02% Tween80. Human plasma for coagulation assays was obtained from George King Bio-Medica for the clotting assays. Thromboplastin-D (PT reagent), APTT reagent containing ellagic acid, and 0.025 M solution of CaCl2 were obtained from Thermo Fisher Scientific. Results were reproduced at least three times.
# (§3) The inhibitory potential of various heparin mimetics against other clotting factors, including thrombin, factor Xa, and factor XIa, was also examined using established chromogenic substrate hydrolysis assays.[47],[50] For instance, in each well of a 96-well microplate containing either 85 or 185 μL of 20–50 mM Tris-HCl buffer (pH 7.4), supplemented with 100–150 mM NaCl, 0.1% PEG8000, and 0.02% Tween80 at either 25 or 37 °C, 5 μL of the inhibitor (or high purity water) and 5 μL of the enzyme were added. The final concentrations of the enzymes were 6 nM (thrombin), 1.09 nM (factor Xa), and 0.8 nM (factor XIa). After a 5 min incubation period, 5 μL of Spectrozyme TH (final concentration: 0.050 mM), Spectrozyme FXa (0.125 mM), or factor XIa substrate (0.35 mM) was swiftly added, and the residual enzyme activity was gauged from the initial rate of increase in absorbance at λ405 nm. The relative residual enzyme activity was calculated as a function of the inhibitor concentration. If 50% or more of the enzyme was inhibited, the results were then plotted using eq 1 to determine the corresponding IC50 values.
# [1] = system: CaCo-2 heterogeneous human epithelial colorectal adenocarcinoma cells; experiment: cell viability, Alamar Blue, CaCo-2; assay type: cell-based; conditions: CaCo-2, 10 μM, 3 days
# Protocol: (§4) To further evaluate the selectivity as well as the potential toxicity of inhibitors, we studied their effects on the clotting times of normal human plasma as well as their effects on the proliferation of three cell lines. On the one hand, the inhibitors’ effects on activated partial thromboplastin time (APTT) and prothrombin time (PT) were measured, as described earlier under in vitro conditions,[52]−[55] using variable concentrations (0–2000 μM) (Table 3). […] On the other hand, the antiproliferative properties of inhibitors 13 and 16 were evaluated in three cell lines of breast (MCF-7), intestine (CaCo-2), and kidney (HEK-293) (Figure 5B), as described earlier.[56] […] Overall, inhibitor 16 can be considered for further development as a potent, selective, and nontoxic inhibitor of human FXIIIa.
# (§5) HEK-293 human embryonic kidney cells,[66] CaCo-2 heterogeneous human epithelial colorectal adenocarcinoma cells,[67] and MCF-7 human breast carcinoma cells[68] were treated as reported previously.[69],[70] […] Subsequently, fluorescence readings (λEx. = 560 nm and λEm. = 590 nm) were taken using the Synergy H1 multiplate reader (BioTek) to quantify cell numbers both in the absence (utilizing distilled water as a control) and the presence of inhibitors 13 and 16 (at a concentration of 10 μM; incubated for 3 days). […]
# [2] = system: MCF-7 human breast carcinoma cells; experiment: cell viability, Alamar Blue, MCF-7; assay type: cell-based; conditions: MCF-7, 10 μM, 3 days
# Protocol: as §4, §5
# [3] = system: HEK-293 human embryonic kidney cells; experiment: cell viability, Alamar Blue, HEK-293; assay type: cell-based; conditions: HEK-293, 10 μM, 3 days
# Protocol: as §4, §5
# factor XIa = target: T2, factor XIa (Homo sapiens, UniProt P03951); experiment: chromogenic substrate hydrolysis assay, factor XIa; assay type: biochemical; conditions: for IC50: Tris-HCl pH 7.4, 37 °C, > values from highest concentration used, read-out: FXIa IC50; for FXIa HS (Hill slope) / FXIa ΔY (efficacy): pH 7.4, 37 °C
# T2 construct: Human plasma proteins such as FXIIIa, thrombin, factor Xa, and factor XIa; purchased Haematologic Technologies; host or cells: human plasma
# T2 sequence (P03951 388-625 limits assumed): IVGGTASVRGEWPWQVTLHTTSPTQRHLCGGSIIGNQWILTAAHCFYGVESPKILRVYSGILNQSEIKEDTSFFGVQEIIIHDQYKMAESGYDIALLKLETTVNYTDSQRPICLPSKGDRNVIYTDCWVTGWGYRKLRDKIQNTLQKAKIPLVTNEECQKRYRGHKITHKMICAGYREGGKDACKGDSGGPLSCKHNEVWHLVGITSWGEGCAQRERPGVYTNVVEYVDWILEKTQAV
# T2 sequence (P03951 19-387 limits assumed): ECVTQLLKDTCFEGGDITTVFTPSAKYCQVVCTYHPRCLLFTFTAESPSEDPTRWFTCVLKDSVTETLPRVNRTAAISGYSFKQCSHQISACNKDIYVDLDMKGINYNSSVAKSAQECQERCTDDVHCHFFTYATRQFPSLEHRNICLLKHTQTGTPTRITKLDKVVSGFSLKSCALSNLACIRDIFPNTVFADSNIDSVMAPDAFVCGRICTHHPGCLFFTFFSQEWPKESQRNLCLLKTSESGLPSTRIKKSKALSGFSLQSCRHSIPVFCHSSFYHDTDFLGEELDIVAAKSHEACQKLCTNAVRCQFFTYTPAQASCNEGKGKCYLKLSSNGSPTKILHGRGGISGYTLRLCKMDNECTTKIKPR
# From the text: as §1, §2, §3
# thrombin [4] = experiment: chromogenic substrate hydrolysis assay, thrombin; assay type: biochemical, human
# From the text: as §1, §2, §3
# thrombin [5] = target: T3, thrombin (Homo sapiens, UniProt P00734); experiment: chromogenic substrate hydrolysis assay, thrombin; assay type: biochemical; conditions: for IC50: Tris-HCl pH 7.4, 37 °C, > values from highest concentration used; for thrombin HS (Hill slope) / thrombin ΔY (efficacy): pH 7.4, 37 °C
# T3 construct: Human plasma proteins such as FXIIIa, thrombin, factor Xa, and factor XIa; purchased Haematologic Technologies; host or cells: human plasma
# From the text: as §1, §2, §3
# normal human plasma = experiment: prothrombin time (PT) of normal human plasma; assay type: biochemical; conditions: in vitro
# Protocol: as §4
# Clotting times, including activated partial thromboplastin time (APTT) and prothrombin time (PT), were assessed in normal human plasma utilizing the BBL Fibrosystem fibrometer from Becton–Dickinson, as detailed in previous publications.[51]−[54] For the PT assay, thromboplastin-D was dissolved in 4 mL of highly purified water and then warmed to 37 °C. Subsequently, 10 μL of the inhibitor was added to 90 μL of normal human plasma and incubated for 30 s. Following this, 200 μL of prewarmed PT reagent was added, and the clotting time was recorded. In the APTT assay, 10 μL of the inhibitor was combined with 90 μL of normal human plasma and 100 μL of prewarmed APTT reagent (0.2% ellagic acid). After incubation for 4 min at 37 °C, clotting was initiated by adding 100 μL of prewarmed 0.025 M CaCl2, and the clotting time was documented. Multiple concentrations of each molecule were employed in both assays to establish a concentration vs effect curve.
# T1 sequence (P00742 235-488 limits assumed): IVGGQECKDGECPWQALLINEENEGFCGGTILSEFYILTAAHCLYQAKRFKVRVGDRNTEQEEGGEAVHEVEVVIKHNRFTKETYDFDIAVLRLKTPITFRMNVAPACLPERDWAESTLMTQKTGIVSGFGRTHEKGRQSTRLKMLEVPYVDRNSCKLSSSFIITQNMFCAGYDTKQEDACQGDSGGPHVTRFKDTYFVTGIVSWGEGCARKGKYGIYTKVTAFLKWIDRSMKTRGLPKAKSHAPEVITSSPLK
# T1 sequence (P00742 41-179 limits assumed): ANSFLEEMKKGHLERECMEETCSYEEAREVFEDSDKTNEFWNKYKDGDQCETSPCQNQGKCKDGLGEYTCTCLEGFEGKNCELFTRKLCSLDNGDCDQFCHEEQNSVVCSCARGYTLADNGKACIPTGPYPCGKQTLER
SMILES,selectivity index for FXIIIa over factor Xa (factor Xa),IC50 (factor Xa) [µM],FXa HS (Hill slope) (factor Xa),FXa ΔY (efficacy) (factor Xa) [%],effect on proliferation / cell viability [1],effect on proliferation / cell viability [2],effect on proliferation / cell viability [3],selectivity index for FXIIIa over factor XIa (factor XIa) [fold],IC50 (factor XIa) [µM],selectivity index for FXIIIa over thrombin (thrombin [4]),IC50 (thrombin [5]) [µM],thrombin HS (Hill slope) (thrombin [5]),thrombin ΔY (efficacy) (thrombin [5]) [%],PT2X (concentration required to double PT) (normal human plasma) [µM],FXIa HS (Hill slope) (factor XIa),FXIa ΔY (efficacy) (factor XIa) [%]
Nc1c(S(=O)(=O)O)cc(Nc2ccc(Nc3nc(Cl)nc(Nc4ccccc4S(=O)(=O)O)n3)c(S(=O)(=O)O)c2)c2c1C(=O)c1ccccc1C2=O [compound 13],20 fold,63.5 ± 13,1.5 ± 0.5,87 ± 4,does not significantly affect the proliferation,does not significantly affect the proliferation,does not significantly affect the proliferation,> 48,> 150,28 fold,86.9 ± 33.6,1.9 ± 1.5,43 ± 11,–,–,–
Nc1c(/N=N/c2ccc(Nc3nc(Cl)nc(Nc4cccc(S(=O)(=O)O)c4)n3)cc2S(=O)(=O)O)c(S(=O)(=O)O)cc2c(O)c(/N=N/c3ccc(Nc4nc(Cl)nc(Nc5cccc(S(=O)(=O)O)c5)n4)cc3S(=O)(=O)O)ccc12 [compound 14],6 fold,31 ± 5.7,2.5 ± 0.9,53 ± 5,–,–,–,> 30,> 150,–,> 500,–,–,–,–,–
Nc1c(/N=N/c2ccc(S(=O)(=O)CCOS(=O)(=O)O)cc2)c(S(=O)(=O)O)cc2cc(S(=O)(=O)O)c(/N=N/c3ccc(S(=O)(=O)CCOS(=O)(=O)O)cc3)c(O)c12 [compound 16],> 208 fold,> 500,–,–,does not significantly affect the proliferation,does not significantly affect the proliferation,does not significantly affect the proliferation,> 65,> 150,> 208 fold,> 500,–,–,–,–,–
Cc1cc(-c2ccc(/N=N/c3ccc4c(S(=O)(=O)O)cc(S(=O)(=O)O)c(N)c4c3O)c(C)c2)ccc1/N=N/c1ccc2c(S(=O)(=O)O)cc(S(=O)(=O)O)c(N)c2c1O [compound 18],–,–,1.9 ± 0.2,80 ± 2,–,–,–,–,–,–,–,2.6 ± 1.0,62 ± 5,497.9 ± 52,1.9 ± 0.3,104 ± 3
COc1cc(-c2ccc(/N=N/c3ccc4c(S(=O)(=O)O)cc(S(=O)(=O)O)c(N)c4c3O)c(OC)c2)ccc1/N=N/c1ccc2c(S(=O)(=O)O)cc(S(=O)(=O)O)c(N)c2c1O [compound 19],at least 7 fold,> 100,–,–,–,–,–,–,6.2 ± 0.4,at least 7 fold,> 100,–,–,3073.2 ± 281,1.5 ± 0.1,106 ± 3

# Source: article PMC11256326, “Discovery of Heparin Mimetic, Potent, and Selective Inhibitors of Human Clotting Factor XIIIa” (ACS Omega, 2024)
